Laboratory results taken from patent US12384770B2, “Heterocyclic compound” (Takeda Pharmaceutical Company Limited, priority 2019, dated 2025).

Target: T1, HDAC6 enzyme (Homo sapiens, UniProt Q9UBN7)
T1 construct: HDAC6 enzyme prepared by transducing full length HDAC6 gene into Sf-9 insect cells; GST; purchased SignalChem; host or cells: Sf-9 insect cells
T1 sequence (Q9UBN7 1-1215): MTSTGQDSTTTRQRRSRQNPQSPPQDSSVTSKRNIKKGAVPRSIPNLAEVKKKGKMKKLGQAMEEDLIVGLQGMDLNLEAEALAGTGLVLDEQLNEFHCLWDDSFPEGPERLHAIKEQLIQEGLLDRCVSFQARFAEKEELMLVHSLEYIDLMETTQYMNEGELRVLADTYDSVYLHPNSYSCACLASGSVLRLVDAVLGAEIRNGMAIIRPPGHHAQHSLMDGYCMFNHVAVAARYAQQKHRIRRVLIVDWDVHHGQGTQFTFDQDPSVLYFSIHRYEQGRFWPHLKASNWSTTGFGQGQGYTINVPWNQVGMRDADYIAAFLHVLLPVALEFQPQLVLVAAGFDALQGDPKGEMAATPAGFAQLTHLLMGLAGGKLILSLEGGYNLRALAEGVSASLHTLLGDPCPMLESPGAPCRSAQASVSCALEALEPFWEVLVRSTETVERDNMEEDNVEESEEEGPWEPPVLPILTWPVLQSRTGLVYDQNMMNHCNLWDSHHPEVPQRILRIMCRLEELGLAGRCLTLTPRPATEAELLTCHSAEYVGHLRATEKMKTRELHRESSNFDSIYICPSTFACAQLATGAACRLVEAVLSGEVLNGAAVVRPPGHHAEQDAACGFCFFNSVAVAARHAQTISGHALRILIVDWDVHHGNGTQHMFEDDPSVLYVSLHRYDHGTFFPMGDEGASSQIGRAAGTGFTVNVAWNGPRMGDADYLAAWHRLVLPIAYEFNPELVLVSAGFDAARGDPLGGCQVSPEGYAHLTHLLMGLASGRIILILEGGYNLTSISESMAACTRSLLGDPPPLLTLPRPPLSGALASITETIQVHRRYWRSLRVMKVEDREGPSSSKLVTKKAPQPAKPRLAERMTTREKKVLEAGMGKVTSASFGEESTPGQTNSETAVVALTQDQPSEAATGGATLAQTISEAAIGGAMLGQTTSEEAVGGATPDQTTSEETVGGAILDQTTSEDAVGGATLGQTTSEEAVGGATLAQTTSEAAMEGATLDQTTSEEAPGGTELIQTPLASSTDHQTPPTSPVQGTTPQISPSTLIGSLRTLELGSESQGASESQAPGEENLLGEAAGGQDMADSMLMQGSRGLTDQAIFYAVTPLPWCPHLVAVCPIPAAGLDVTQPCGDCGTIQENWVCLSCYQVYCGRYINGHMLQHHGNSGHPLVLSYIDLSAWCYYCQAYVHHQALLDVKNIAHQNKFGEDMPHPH
Assay: HDAC6 enzyme inhibitory assay (HDAC-Glo I/II Assay kit)
Type: biochemical
Conditions: wells without enzyme = 100% inhibition; for inhibition at 10 µM: read-out: HDAC6 inhibitory rate (%) (10 μM)
Procedure, shortened: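 Full-length GST-purified HDAC6 from Sf-9 cells preincubated with compound 60 min at room temperature in Tris-HCl pH 7.5 buffer with MgCl2, KCl, NaCl, glutathione, Tween-20. Substrate-developer reaction 20 min, luminescence read; no-enzyme wells set as 100% inhibition.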

Compound | inhibition at 10 µM [%] | also measured
O=C1c2cc(-c3nnc(C(F)F)o3)ccc2CN1[C@H](c1ccccn1)[C@@H](O)c1ccccc1 (single isomer, unassigned) [Example 103, 6-[5-(difluoromethyl)-1,3,4-oxadiazol-2-yl]-2-[(1R*,2S*)-2-hydroxy-2-phenyl-1-(pyridin-2-yl)ethyl]-2,3-dihydro-1H-isoindol-1-one] |  | HDAC6 inhibitory rate (%) (10 μM): 100%
O=C1c2cc(-c3nnc(C(F)F)o3)ccc2CN1[C@@H](c1ccccc1)[C@H](O)c1ccccc1 [Example 14, 6-[5-(difluoromethyl)-1,3,4-oxadiazol-2-yl]-2-[(1S,2R)-2-hydroxy-1,2-diphenylethyl]-2,3-dihydro-1H-isoindol-1-one] | 100 | 
O=C1c2cc(-c3nnc(C(F)F)o3)ccc2CN1[C@H](C1CCOCC1)[C@H](O)c1cccc(F)c1 [Example 149, 6-[5-(difluoromethyl)-1,3,4-oxadiazol-2-yl]-2-[(1R,2R)-2-(3-fluorophenyl)-2-hydroxy-1-(oxan-4-yl)ethyl]-2,3-dihydro-1H-isoindol-1-one] | 100 | 
O=C1c2cc(-c3nnc(C(F)F)o3)ccc2CN1[C@H](c1cnccn1)[C@@H](O)c1ccc(F)cc1 (single isomer, unassigned) [Example 99, 6-[5-(difluoromethyl)-1,3,4-oxadiazol-2-yl]-2-[(1R*,2S*)-2-(4-fluorophenyl)-2-hydroxy-1-(pyrazin-2-yl)ethyl]-2,3-dihydro-1H-isoindol-1-one] |  | HDAC6 inhibitory rate (%) (10 μM): 100%
O=C1c2cc(-c3nnc(C(F)F)o3)ccc2CN1[C@H](c1ccccc1C(F)(F)F)[C@@H](O)c1ccccn1 (racemic) [Example 39, 6-[5-(difluoromethyl)-1,3,4-oxadiazol-2-yl]-2-{(1RS,2RS)-2-hydroxy-2-(pyridin-2-yl)-1-[2-(trifluoromethyl)phenyl]ethyl}-2,3-dihydro-1H-isoindol-1-one] | 101 | 
CCOc1ccc([C@H]([C@@H](O)c2ccc(F)c(F)c2)N2Cc3ccc(-c4nnc(C(F)F)o4)cc3C2=O)cn1 (racemic) [Example 53, 6-[5-(difluoromethyl)-1,3,4-oxadiazol-2-yl]-2-[(1RS,2SR)-2-(3,4-difluorophenyl)-1-(6-ethoxypyridin-3-yl)-2-hydroxyethyl]-2,3-dihydro-1H-isoindol-1-one] | 100 | 
O=C1c2cc(-c3nnc(C(F)F)o3)ccc2CN1[C@H](c1ccccn1)[C@@H](O)c1ccc(Cl)cn1 (single isomer, unassigned) [Example 113, 2-[(1R*,2R)-2-(5-chloropyridin-2-yl)-2-hydroxy-1-(pyridin-2-yl)ethyl]-6-[5-(difluoromethyl)-1,3,4-oxadiazol-2-yl]-2,3-dihydro-1H-isoindol-1-one] |  | HDAC6 inhibitory rate (%) (10 μM) (10 µM): 100%
O=C1c2cc(-c3nnc(C(F)F)o3)ccc2CN1[C@H](c1cccc(F)n1)[C@@H](O)c1ccccn1 (single isomer, unassigned) [Example 75, 6-[5-(difluoromethyl)-1,3,4-oxadiazol-2-yl]-2-[(1R*,2R*)-1-(6-fluoropyridin-2-yl)-2-hydroxy-2-(pyridin-2-yl)ethyl]-2,3-dihydro-1H-isoindol-1-one] | 99 | 
O=C1c2cc(-c3nnc(C(F)F)o3)ccc2CN1[C@H](C1CCC(F)(F)CC1)[C@@H](O)c1ccccn1 (racemic) [Example 81, 2-[(1RS,2RS)-1-(4,4-difluorocyclohexyl)-2-hydroxy-2-(pyridin-2-yl)ethyl]-6-[5-(difluoromethyl)-1,3,4-oxadiazol-2-yl]-2,3-dihydro-1H-isoindol-1-one] | 100 | 
O=C1c2cc(-c3nnc(C(F)F)o3)ccc2CN1[C@H](c1ccc(C(F)(F)F)cc1)[C@@H](O)c1ccccn1 (racemic) [Example 26, 6-[5-(difluoromethyl)-1,3,4-oxadiazol-2-yl]-2-{(1RS,2RS)-2-hydroxy-2-(pyridin-2-yl)-1-[4-(trifluoromethyl)phenyl]ethyl}-2,3-dihydro-1H-isoindol-1-one] | 99 | 
O=C1c2cc(-c3nnc(C(F)F)o3)ccc2CN1[C@@H](c1ccccn1)[C@H](O)c1ccccn1 [Example 2, 6-[5-(difluoromethyl)-1,3,4-oxadiazol-2-yl]-2-[(1S,2S)-2-hydroxy-1,2-di(pyridin-2-yl)ethyl]-2,3-dihydro-1H-isoindol-1-one] | 100 | 
O=C1c2cc(-c3nnc(C(F)F)o3)ccc2CN1[C@H](c1ccccn1)[C@H](O)c1ccccn1 (racemic) [Example 135, 6-[5-(difluoromethyl)-1,3,4-oxadiazol-2-yl]-2-[(1RS,2SR)-2-hydroxy-1,2-di(pyridin-2-yl)ethyl]-2,3-dihydro-1H-isoindol-1-one] | 99 | 
O=C1c2cc(-c3nnc(C(F)F)o3)ccc2CN1[C@H](c1ccc(C(F)(F)F)nc1)[C@@H](O)c1ccccc1 (racemic) [Example 17, 6-[5-(difluoromethyl)-1,3,4-oxadiazol-2-yl]-2-{(1RS,2SR)-2-hydroxy-2-phenyl-1-[6-(trifluoromethyl)pyridin-3-yl]ethyl}-2,3-dihydro-1H-isoindol-1-one] | 100 | 
O=C1c2cc(-c3nnc(C(F)F)o3)ccc2CN1[C@H](C1CCOCC1)[C@@H](O)c1ccc(F)c(Cl)c1 (racemic) [Example 107, 2-[(1RS,2SR)-2-(3-chloro-4-fluorophenyl)-2-hydroxy-1-(oxan-4-yl)ethyl]-6-[5-(difluoromethyl)-1,3,4-oxadiazol-2-yl]-2,3-dihydro-1H-isoindol-1-one] | 101 | 

Continued, in another order:

inhibition at 10 µM [%] | Compound | also measured
99 | O=C1c2cc(-c3nnc(C(F)F)o3)ccc2CN1[C@H](c1ccccn1)[C@H](O)c1ccc(F)cc1 (racemic) [Example 141, 6-[5-(difluoromethyl)-1,3,4-oxadiazol-2-yl]-2-[(1RS,2RS)-2-(4-fluorophenyl)-2-hydroxy-1-(pyridin-2-yl)ethyl]-2,3-dihydro-1H-isoindol-1-one] | 
99 | O=C1c2cc(-c3nnc(C(F)F)o3)ccc2CN1[C@H](c1ccc(F)cc1)[C@@H](O)c1ccc(F)nc1 (single isomer, unassigned) [Example 131, 6-[5-(difluoromethyl)-1,3,4-oxadiazol-2-yl]-2-[(1R*,2S*)-1-(4-fluorophenyl)-2-(6-fluoropyridin-3-yl)-2-hydroxyethyl]-2,3-dihydro-1H-isoindol-1-one] | 
99 | O=C1c2cc(-c3nnc(C(F)F)o3)ccc2CN1[C@H](c1ccc(F)cc1)[C@@H](O)c1cccc(F)c1 (racemic) [Example 16, 6-[5-(difluoromethyl)-1,3,4-oxadiazol-2-yl]-2-[(1RS,2SR)-2-(3-fluorophenyl)-1-(4-fluorophenyl)-2-hydroxyethyl]-2,3-dihydro-1H-isoindol-1-one] | 
100 | O=C1c2cc(-c3nnc(C(F)F)o3)ccc2CN1[C@H](c1ccc(F)cc1)[C@@H](O)c1ccc(F)nc1 (racemic) [Example 58, 6-[5-(difluoromethyl)-1,3,4-oxadiazol-2-yl]-2-[(1RS,2SR)-1-(4-fluorophenyl)-2-(6-fluoropyridin-3-yl)-2-hydroxyethyl]-2,3-dihydro-1H-isoindol-1-one] | 
100 | O=C1c2cc(-c3nnc(C(F)F)o3)ccc2CN1[C@H](c1ccc(F)nc1)[C@@H](O)c1ccc(F)cc1 (single isomer, unassigned) [Example 34, 6-[5-(difluoromethyl)-1,3,4-oxadiazol-2-yl]-2-[(1R*,2S*)-2-(4-fluorophenyl)-1-(6-fluoropyridin-3-yl)-2-hydroxyethyl]-2,3-dihydro-1H-isoindol-1-one] | 
